Measured values from paper PMC12006758 (Frontiers in Chemistry, 2025).
≈ marks a conversion by molar mass, not a printed value. Where two headings read alike, the source gives them in different places.

Legend:
[1] = tested on: HT-29 cancer cell line; assay: MTT cell viability assay, HT-29; format: cell-based; conditions: Homo sapiens, HT-29 colon cancer cells
Protocol: (§1) All cell lines were obtained from the Vacsera Cell Culture Library, Tissue Culture Unit, Cairo, Egypt, with ATCC certification. For further details, See Supplementary Appendix A in the supplementary data.
(§2) All cell lines were obtained from the Vacsera Cell Culture Library, Tissue Culture Unit, Cairo, Egypt, with ATCC certification.
(§3) Cells were cultured in DMEM (Invitrogen/Life Technologies) supplemented with 10% FBS (Hyclone), […] (Sigma), and 1% penicillin-streptomycin. Cells were seeded at a density of 1.2–1.8 × 10,000 cells per well in 96-well plates with 100 µL of complete growth medium […]. After 24 hours of incubation, 100 µL of serially diluted sterile test compounds were added to achieve final concentrations ranging from 0.01 to 100 µM, with growth media serving as the negative control. Following another 24-hour incubation, supernatants were removed, and cells were prepared for MTT testing.
(§4) Each experiment included a blank control with complete media but no cells. […] Reconstituted MTT was added to the culture medium at 10% of its volume, and cultures were incubated for 2 to 4 hours, depending on cell type and density.
(§5) Absorbance was measured spectrophotometrically at 570 nm, with background absorbance at 690 nm subtracted. Data from all experiments were recorded, and cell viability percentages were calculated.

[2] = tested on: MCF7 cancer cell line; assay: MTT cell viability assay, MCF7; format: cell-based; conditions: Homo sapiens
Protocol: as §1, §2, §3, §4, §5

[3] = tested on: PC3 cancer cell line; assay: MTT cell viability assay, PC3; format: cell-based; conditions: Homo sapiens, read-out: IC50 PC3
Protocol: as §1, §2, §3, §4, §5

[4] = tested on: normal CCD-986sk cell line; assay: MTT cell viability assay, normal CCD-986sk; format: cell-based; conditions: Homo sapiens, read-out: IC50 CCD-986sk
Protocol: as §1, §2, §3, §4, §5

[5] = tested on: PC3 cells; assay: Cell cycle analysis by flow cytometry (PI); format: cell-based, human; conditions: Pyr at IC50 (8.63 μg/mL), 24 hours
Protocol: For further details, See Supplementary Appendix A in the supplementary data.
After treatment, the cells were washed twice with ice-cold phosphate-buffered saline (PBS, pH 7.4, Sigma-Aldrich, Inc.), collected by centrifugation, and fixed in 66% ice-cold ethanol. The cells were subsequently washed with PBS, resuspended in a solution containing 0.1 mg/mL RNase for 30 minutes, stained with 50 µg/mL propidium iodide (PI), and analyzed using the FACSCalibur flow cytometry system (Becton Dickinson, Franklin Lakes, NJ, USA). Cell cycle distributions were determined with CellQuest software (Becton Dickinson).

[6] = tested on: PC3 cells; assay: Annexin V-FITC/PI apoptosis assay; format: cell-based, human; conditions: Pyr at IC50 (8.63 μg/mL), 48 hours
From the text: To detect apoptosis in PC3 cancer cells, the Annexin V FITC assay protocol was employed as described in the literature ([Ali et al., 2024]). For further details, See Supplementary Appendix A in the supplementary data.
The Annexin V-FITC Apoptosis Detection Kit (Catalog #: K101-25, Bio Vision Research Products, Mountain View, CA, USA) operates on the principle that during the early stages of apoptosis, phosphatidylserine (PS) translocates from the inner leaflet of the plasma membrane to the extracellular surface. This relocation allows PS to be detected by Annexin V, a protein with high affinity for PS, when conjugated with a fluorescent compound. The staining process is quick, taking only 10 minutes, and apoptosis detection is performed using flow cytometry. The kit differentiates between apoptotic and necrotic cells based on Annexin V-FITC and propidium iodide (PI) labeling. Early apoptotic cells are Annexin V-positive and PI-negative, while late apoptotic cells are both Annexin V-positive and PI-positive.
For the experiment, cells (5 × 10⁵) were cultured in triplicate in Dulbecco’s Modified Eagle Medium (DMEM) at 37 °C in a 5% CO₂ atmosphere for 24 hours to allow for attachment. […] Following incubation, cells were harvested, washed with cold PBS, and resuspended in binding buffer. Annexin V and PI were added, and the cells were incubated at 4 °C in the dark for 30 minutes for staining. Flow cytometric analysis was performed using the FACS Calibur system (Becton Dickinson, Franklin Lakes, NJ, USA) on a minimum of 10⁴ cells. Dot plots were generated, and the total fraction of apoptotic cells was quantified as described.

[7] = tested on: p53; assay: p53 protein expression level in PC3 cells; format: cell-based, human; conditions: DMSO control 151.33 ± 3.33
[8] = tested on: Bax; assay: Bax protein expression level in PC3 cells; format: cell-based, human; conditions: DMSO control 81.49 ± 3.16
[9] = tested on: Bcl-2; assay: Bcl-2 protein expression level in PC3 cells; format: cell-based, human; conditions: DMSO control 21.68 ± 0.7
[10] = tested on: caspase-3; assay: Caspase-3 activity in PC3 cells; format: cell-based, human; conditions: DMSO control 67.02 ± 2.6
From the text: (§6) This notable increase underscores the activation of downstream apoptotic processes, as caspase-3 is a key effector protease responsible for the cleavage of vital cellular substrates during apoptosis. […] The activation of caspase-9 indicates the involvement of the intrinsic (mitochondrial) pathway, consistent with the observed modulation of upstream regulators, including p53, Bax, and Bcl-2.

[11] = tested on: caspase-9; assay: Caspase-9 activity in PC3 cells; format: cell-based, human; conditions: DMSO control 4.66 ± 0.41
From the text: as §6

[12] = biological target: CA IX; conditions: benzofuran-based SLC-0111 analog; ref Shaldam et al., 2021; cited from earlier work

NS(=O)(=O)c1ccc(NC(=O)Nc2ccncc2)cc1 [Pyr, 4-(3-(pyridin-4-yl)ureido)benzenesulfonamide]
IC50 [1]: 27.7 µg/mL (≈ 94.9 µM) | IC50 ([2]; MTT, MCF7 breast cancer cells, read-out: IC50 MCF7): 11.2 µg/mL (≈ 38.3 µM) | IC50 ([3]; MTT, PC3 prostate cancer cells): 8.36 µg/mL (≈ 28.6 µM) | IC50 ([4]; MTT, normal CCD-986sk cells): 50.3 µg/mL (≈ 172 µM) | DNA content % G2/M ([5]; DMSO control 17.50): 7.18% | DNA content % S ([5]; DMSO control 28.66): 16.23% | DNA content % G0-G1 ([5]; DMSO control 53.84): 76.59% | Apoptosis Late ([6]; DMSO control 0.15): 15.74% | Apoptosis Early ([6]; DMSO control 0.42): 9.33% | Necrosis ([6]; DMSO control 1.82): 4.39% | P53 Conc [7]: 1461.33 ± 10.00 pg/mL | Bax Conc [8]: 477.27 ± 18.54 pg/mL | Bcl-2 Conc [9]: 8.88 ± 0.3 pg/mL | Caspase 3 Conc [10]: 573.19 ± 22.27 pg/mL | Caspase-9 Conc [11]: 41.82 ± 0.95 ng/mL

NS(=O)(=O)c1ccc(NC(=O)Nc2ccc(F)cc2)cc1 [SLC-0111, reference compound]
IC50 ([2]; MCF7, read-out: IC50 MCF7): 18.1 µg/mL (≈ 58.7 µM) | IC50 [3]: 8.71 µg/mL (≈ 28.2 µM) | IC50 ([4]; CCD-986Sk): 45.7 µg/mL (≈ 148 µM)

NS(=O)(=O)c1ccc(NC(=O)Nc2oc3ccccc3c2Br)cc1 [compound 1]
Ki [12]: 7.1 nM
